Results taken from patent US5859007A, “CCK or gastrin modulating benzo [b][1,4] diazepines derivatives” (Glaxo Wellcome Inc., priority 1994, dated 1999).

System: isolated guinea pig gallbladder
Assay: Functional activity in isolated guinea pig gallbladder preparation
Type: cell-based
Settings: expressed as % CCK-induced maximal response; for activation at 1 µM / activation at 30 µM: Cavia porcellus; for activation at 1 µM / %Contraction (1 × 10^-6 M): 1 × 10^-6 M test compound; for activation at 1 µM: read-out: %Contraction (1 × 10^-6 M); for activation at 30 µM / % Contraction (3 × 10^-5 M): 3 × 10^-5 M test compound; for activation at 30 µM: read-out: % Contraction (3 × 10^-5 M)
Method: 3. GUINEA PIG GALL BLADDER ASSAY
Gallbladders are removed from guinea pigs sacrificed by cervical dislocation. The isolated gallbladders are cleaned of adherent connective tissue and cut into two rings from each animal (2-4 mm in length). The rings are subsequently suspended in organ chambers containing a physiological salt solution (118.4 mM NaCl, 4.7 mM KCl, 1.2 mM MgSO4, 2.5 mM CaCl2, 1.2 mM KH2 […], 25 mM NaHCO3, 11.1 mM dextrose). The bathing solution is maintained at 37° C. and aerated with 95% O2 /5% CO2. Tissues are connected via gold chains and stainless steel mounting wires to isometric force displacement transducers (Grass, Model FT03 D). Responses are then recorded on a polygraph (Grass, Model 7E).
Rings are gradually stretched (over a 120 min. period) to a basal resting tension of 1 gm which is maintained throughout the experiment. During the basal tension adjustment period, the rings are exposed to acetylcholine (10^-6 M) four times to verify tissue contractility. The tissues are then exposed to a submaximal dose of sulfated CCK-8 (Sigma, 3×10^-9 M). After obtaining a stable response, the tissues are washed out 3 times rapidly and every 5 to 10 minutes for 1 hour to reestablish a stable baseline.
Compounds are dissolved in dimethylsulfoxide ([…]) followed by a concentration-response curve to sulfated CCK-8 (10^-10 to 10^-6 M) in the presence of the highest dose of the test compound. As a final test, ACH (10 mM) is added to induce maximal contraction. A minimum of three determinations of activity are made for each test compound.

COc1ccc(N(C(=O)CN2C(=O)C(C)(Cc3n[nH]c4ccccc34)C(=O)N(c3cccnc3)c3ccccc32)C(C)C)cc1 (single isomer, unassigned) [Example 75, 2-[3-(1H-indazol-3-ylmethyl)-3-methyl-2,4-dioxo-5-pyridin-3-yl-2,3,4,5-tetrahydro-benzo[b][1,4]diazepin-1-yl]-N-isopropyl-N-(4-methoxy-phenyl)-acetamide]
activation at 1 µM: 102% | activation at 30 µM: 82%

COc1ccc(N(C(=O)CN2C(=O)C(Cc3n[nH]c4ccccc34)C(=O)N(c3cccnc3)c3ccccc32)C(C)C)cc1 (single isomer, unassigned; (+)) [Example 72, (+)-2-[3-(1H-Indazol-3-ylmethyl)-2,4-dioxo-5-pyridin-3-yl-2,3,4,5-tetrahydrobenzo[b][1,4]diazepin-1-yl]-N-isopropyl-N-(4-methoxyphenyl) acetamide]
%Contraction (1 × 10^-6 M): 104% | % Contraction (3 × 10^-5 M): 93%

COc1ccc(N(C(=O)CN2C(=O)C(Cc3n[nH]c4ccccc34)C(=O)N(c3cccnc3)c3ccccc32)C(C)C)cc1 (single isomer, unassigned; (-)) [Example 73, (-)-2-[3-(1H-Indazol-3-ylmethyl)-2,4-dioxo-5-pyridin-3-yl-2,3,4,5-tetrahydrobenzo[b][1,4]diazepin-1-yl]-N-isopropyl-N-(4-methoxyphenyl) acetamide]
%Contraction (1 × 10^-6 M): 58% | % Contraction (3 × 10^-5 M): 64%

CCOC(=O)c1cccc(NC(=O)CC2C(=O)N(CC(=O)N(c3ccccc3)C(C)C)c3ccccc3N(c3ccccc3)C2=O)c1 (stereo not shown) [Example 1]
activation at 30 µM: 64%

CC(C)N(C(=O)CN1C(=O)C(CC(=O)Nc2cccc(C(=O)O)c2)C(=O)N(c2ccccc2)c2ccccc21)c1ccccc1 (stereo not shown) [Example 2]
activation at 30 µM: 94%

CC(C)N(C(=O)CN1C(=O)C(C)(CC(=O)Nc2cccc(C(=O)O)c2)C(=O)N(c2ccccc2)c2ccccc21)c1ccccc1 (stereo not shown) [Example 3, 2-[2,4-Dioxo-5-phenyl-3-methyl-3-(3-carboxyphenyl)carbamoylmethyl-2,3,4,5-tetrahydro-benzo[b][1,4]diazepin-1-yl]-N-isopropyl-N-phenyl acetamide]
activation at 1 µM: 75% | activation at 30 µM: 102%

CC(C)N(C(=O)CN1C(=O)C(C)(CC(=O)Nc2ccccc2)C(=O)N(c2ccccc2)c2ccccc21)c1ccccc1 (stereo not shown) [Example 4, 2-(2,4-Dioxo-5-phenyl-3-methyl-3-phenylcarbamoylmethyl-2,3,4,5-tetrahydro-benzo[b][1,4]diazepin-1-yl)-N-isopropyl-N-phenyl acetamide]
activation at 1 µM: 80% | activation at 30 µM: 79%

CC(C)N(C(=O)CN1C(=O)C(C)(CC(=O)N(C)c2ccccc2)C(=O)N(c2ccccc2)c2ccccc21)c1ccccc1 (stereo not shown) [Example 5, 2-(2,4-Dioxo-5-phenyl-3-methyl-N-methyl-3-phenylcarbamoylmethyl-2,3,4,5-tetrahydro-benzo[b][1,4]diazepin-1-yl)-N-isopropyl-N-phenyl acetamide]
activation at 1 µM: 9%

CC(C)N(C(=O)CN1C(=O)C(C)(CCNc2ccccc2)C(=O)N(c2ccccc2)c2ccccc21)c1ccccc1 (stereo not shown) [Example 6, N-Isopropyl-2-[3-methyl-2,4-dioxo-5-phenyl-3-(2-phenylaminoethyl)-2,3,4,5-tetrahydro-benzo[b][1,4]diazepin-1-yl]-N-phenyl acetamide]
activation at 1 µM: 7%

CC(C)N(C(=O)CN1C(=O)C(C)(CC(=O)c2ccccc2)C(=O)N(c2ccccc2)c2ccccc21)c1ccccc1 (stereo not shown) [Example 7, N-Isopropyl-2-[3-methyl-2,4-dioxo-3-(2-phenyl-2-oxoethyl)-5-phenyl-2,3,4,5-tetrahydro-benzo[b][1,4]diazepin-1-yl]-N-phenyl acetamide]
%Contraction (1 × 10^-6 M): 15%

CC(C)N(C(=O)CN1C(=O)C(C)(C(C)C(=O)c2ccccc2)C(=O)N(c2ccccc2)c2ccccc21)c1ccccc1 (stereo not shown) [Example 8, N-Isopropyl-2-[3-methyl-2,4-dioxo-3-(1-phenyl-1-oxoprop-2-yl)-5-phenyl-2,3,4,5-tetrahydro-benzo[b][1,4]diazepin-1-yl]-N-phenyl acetamide]
%Contraction (1 × 10^-6 M): 16%
